# Assay results: US6624140B1, “Synthetic peptides with antimicrobial and endotoxin neutralizing properties for management of the sepsis syndrome” (Academisch Ziekenhuis Bij de Universiteit van Amsterdam …, priority 1997, dated 2003)
# No end group written: not given here.
# Assays:
# [1] = Endotoxin Inhibition ELISA (EIE), competitive inhibition of Lipid A binding; parameters: species or system Escherichia coli; conditions: biotinylated BP2; 1 pg/ml E. coli 0111:B4 LPS
# Method: FIG. 6. Competitive inhibition of binding of synthetic peptide BP2 to immobilized lipid A by endotoxin. Biotinylated BP2 peptide in the indicated concentration range was pre-incubated with E. coli 0111:B4 LPS at 1 pg/ml for 20 min at 23° C. and the residual endotoxin binding activity was determined with the use of a lipid A binding ELISA microplate assay. Individual values are the means of triplicate experiments corrected for non-specific binding.
# FIGS. 7A and 7B. Detection of endotoxin in solution with a Lipid A binding assay, the endotoxin inhibition ELISA (EIE) microplate assay. Dose-response of residual LPS binding activity of synthetic peptide BP2 at 8 ng/ml after pre-incubation with E. coli 0111:B4 LPS in the ranges from 0.1 to 1000 pg/ml (Panel A) or from 0.1 to 100 pg/ml (Panel B).
# Capture of the TAG labeled J5 LPS by immobilized synthetic peptide was quantitated by electrochemiluminescence detection subsequent to washing steps with phosphate buffer containing 0.1% (w/v) Triton X100 to remove excess unbound LPS. […] This confirms the high capacity of immobilized peptides of the invention for endotoxin in solution. […] LPS with high affinity and are universal lipid A binding ligands. […]
# [2] = Murine model of lethal endotoxemia; assay type: in vivo, mice; conditions: at 7 days; 5 mg/kg i.p. 20 min before Actinomycin D 800 μg/Kg plus LPS 5 μg/Kg; three experiments combined
# Method: FIG. 13. Efficacy of synthetic peptide BP2 on survival in a murine model of lethal endotoxemia. Outbred femal Swiss-Webster mice of 7 to 8 weeks, weighing 28 to 30 g were treated with BP2 peptide by intraperitoneal (i.p) administration of a dose of 5 mg/Kg in pyrogen-free saline. Twenty minutes later the mice were challenged by i.p administration of the sensitizing agent Actinomycin D at 800 μg/Kg plus lethal concentrations of purified E. coli 0111:B4 LPS at 5 or 11 μg/Kg. Control groups only received Actinomycin D plus LPS. Survival was recorded at 24 h intervals during a 7 day period of observation. The indicated values are the combined results of three independent experiments.
# The efficacy of the peptides of the invention in the protection of experimental animals against the toxic effects of LPS or live pathogenic bacteria was investigated with the use of murine models of lethal endotoxemia and peritonitis Laboratory mice, which are normally tolerant to high doses of endotoxin and require a lethal dose (LD100) of approximately 1 mg, may be sensitized with Actinomycin D to 10,000×lower amounts of endotoxin for lethality. […] The survival of the treated animals was recorded at 24 h intervals during a seven day period of observation and compared with the control groups. […]
# [3] = test system: Escherichia coli strain 018:K1:H7 Bort; assay: Murine model of lethal peritonitis; assay type: in vivo, mice; conditions: at 7 days; 100 μg/mouse (4 mg/kg) 1 h after 10^4 CFU i.p.; two experiments combined
# Method: FIG. 14. Efficacy of synthetic peptide BP2 on survival in a murine model of lethal peritonitis. Outbred female Swiss-Webster mice of 7 to 8 weeks, weighing 28 to 30 g were administered a predetermined lethal dose of 104 colony forming units (CFU) of the pathogenic strain of live E. coli […] Bort organisms by intraperitoneal (i.p.) administration in 0.5 ml pyrogen-free saline. After a delay of 1 h after infection, treated groups of mice received synthetic BP2 peptide in p.f saline at a dosage of 100 μg/mouse (approximately 4 mg/kg) and negative control groups only saline. Survival was recorded at 12 or 24 h intervals during a 7 day period of observation. […]
# The efficacy of the peptides of the invention in the protection of experimental animals against the toxic effects of LPS or live pathogenic bacteria was investigated with the use of murine models of lethal endotoxemia and peritonitis Laboratory mice, which are normally tolerant to high doses of endotoxin and require a lethal dose (LD100) of approximately 1 mg, may be sensitized with Actinomycin D to 10,000×lower amounts of endotoxin for lethality. […] The survival of the treated animals was recorded at 24 h intervals during a seven day period of observation and compared with the control groups. […] The survival of the animals was recorded at 12 or 24 h intervals during a 7 day period of observation and compared with the control groups. […]
substance,measurement,setting,value
"GKWKLFKKAFKKFLKILAC-OH [BP2, Gly-Lys-Trp-Lys-Leu-Phe-Lys-Lys-Ala-Phe-Lys-Lys-Phe-Leu-Lys-Ile-Leu-Ala-Cys]",inhibition of binding of peptide to immobilized Lipid A,[1],65%
same,survival,[2],75%
same,survival,[3],78.5%
